According to ChEMBL document CHEMBL2016464, “Identification of Inhibitors of NOD1-Induced Nuclear Factor-κB Activation” (ACS Med Chem Lett, 2011):
Activity calls are given as the source filed them. The rule behind the calls is not given here.

Legend:
[1] = Plasma concentration in mouse at 30 mg/kg, ip at 20 mins
[2] = target: T1, Nucleotide-binding oligomerization domain-containing protein 1 (Homo sapiens) (UniProt Q9Y239); conditions: MCF7, 0.25 to 5 uM
T1 sequence (whole entry): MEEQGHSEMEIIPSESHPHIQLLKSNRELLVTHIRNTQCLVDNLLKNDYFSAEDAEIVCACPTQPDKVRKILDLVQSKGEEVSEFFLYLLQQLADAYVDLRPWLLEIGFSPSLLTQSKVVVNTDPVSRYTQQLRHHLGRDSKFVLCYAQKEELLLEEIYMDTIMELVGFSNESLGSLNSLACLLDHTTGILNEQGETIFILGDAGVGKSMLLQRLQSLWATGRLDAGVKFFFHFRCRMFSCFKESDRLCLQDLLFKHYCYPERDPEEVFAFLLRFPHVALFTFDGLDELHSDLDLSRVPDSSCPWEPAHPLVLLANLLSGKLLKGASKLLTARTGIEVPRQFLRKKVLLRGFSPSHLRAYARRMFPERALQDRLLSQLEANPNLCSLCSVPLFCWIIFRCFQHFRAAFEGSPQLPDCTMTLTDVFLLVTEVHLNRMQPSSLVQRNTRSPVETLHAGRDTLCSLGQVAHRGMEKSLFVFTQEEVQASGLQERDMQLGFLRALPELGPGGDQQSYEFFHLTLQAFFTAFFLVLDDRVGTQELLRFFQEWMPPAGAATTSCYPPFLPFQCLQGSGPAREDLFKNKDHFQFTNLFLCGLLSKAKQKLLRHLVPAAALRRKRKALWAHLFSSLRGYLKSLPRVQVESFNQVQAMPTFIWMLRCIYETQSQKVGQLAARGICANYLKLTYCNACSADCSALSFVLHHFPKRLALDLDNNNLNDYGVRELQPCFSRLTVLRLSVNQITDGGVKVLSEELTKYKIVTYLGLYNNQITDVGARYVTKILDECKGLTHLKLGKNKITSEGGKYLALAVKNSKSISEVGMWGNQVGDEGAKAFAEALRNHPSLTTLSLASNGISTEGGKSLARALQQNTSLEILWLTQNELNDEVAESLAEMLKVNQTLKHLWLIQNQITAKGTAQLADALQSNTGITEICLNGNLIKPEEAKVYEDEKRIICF

[3] = Metabolic stability in mouse plasma assessed as compound remaining at 1 uM after 180 mins; type: ADME, cell-free; conditions: read-out: Stability
[4] = target: Aurora kinase B (Homo sapiens) (UniProt Q96GD4); experiment: Inhibition of AURKB at 10 uM relative to control
[5] = Plasma protein binding in human at 1 uM after 4 hrs; type: ADME, cell-free; conditions: read-out: PPB (converted)
cells = conditions: Homo sapiens, HEK-293T, 14 h
Description: Inhibition of TNFalpha-induced NFkappaB activation in HEK293T cells after 14 hrs by luciferase reporter gene assay

[6] = target: 5-hydroxytryptamine receptor 2B (Homo sapiens) (UniProt P41595); experiment: Inhibition of 5HT2B receptor at 10 uM
[7] = Plasma protein binding in mouse at 10 uM after 4 hrs; type: ADME, cell-free; conditions: read-out: PPB (converted)
[8] = Plasma protein binding in human at 10 uM after 4 hrs; type: ADME, cell-free; conditions: read-out: PPB (converted)
[9] = target: 5-hydroxytryptamine receptor 6 (Homo sapiens) (UniProt P50406); experiment: Inhibition of 5HT6 receptor at 10 uM
[10] = target: Serine/threonine-protein kinase RIO2 (Homo sapiens) (UniProt Q9BVS4); experiment: Inhibition of RIOK2 at 10 uM relative to control
[11] = Metabolic stability in mouse liver microsomes assessed as compound remaining at 1 uM preincubated for 10 mins measured after 60 mins; type: ADME, Microsome; conditions: read-out: Stability
HEK-293T [12] = experiment: Cytotoxicity against HEK293T cells at 20 uM by alamar blue assay; type: cell-based; conditions: human
[13] = Plasma protein binding in mouse at 1 uM after 4 hrs; type: ADME, cell-free; conditions: read-out: PPB (converted)
[14] = Metabolic stability in human plasma assessed as compound remaining at 1 uM after 180 mins; type: ADME, cell-free; conditions: read-out: Stability
[15] = target: T2, Aurora kinase C (Homo sapiens) (UniProt Q9UQB9); experiment: Inhibition of AURKC at 10 uM relative to control
T2 sequence (whole entry): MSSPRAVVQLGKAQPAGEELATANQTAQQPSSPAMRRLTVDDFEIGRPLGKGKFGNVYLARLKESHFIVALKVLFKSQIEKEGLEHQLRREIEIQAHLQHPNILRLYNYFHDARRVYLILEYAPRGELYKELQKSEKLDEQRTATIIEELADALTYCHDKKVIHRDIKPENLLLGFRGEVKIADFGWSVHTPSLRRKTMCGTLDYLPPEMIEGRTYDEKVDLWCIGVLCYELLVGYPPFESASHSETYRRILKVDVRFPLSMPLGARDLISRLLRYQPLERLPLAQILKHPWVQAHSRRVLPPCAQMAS

[16] = Metabolic stability in human liver microsomes assessed as compound remaining at 1 uM preincubated for 10 mins measured after 60 mins; type: ADME, Microsome; conditions: read-out: Stability
[17] = Plasma concentration in mouse at 30 mg/kg, ip at 120 mins
[18] = Cytotoxicity against human Fa2N-4 cells after 24 hrs by ATP-lite assay; type: cell-based; conditions: read-out: LD50
[19] = target: Histamine H1 receptor (Homo sapiens) (UniProt P35367); experiment: Inhibition of H1 histamine receptor at 10 uM
HEK-293T [20] = experiment: Inhibition of doxorubicin-induced NFkappaB activation at 0.25 to 25 uM in HEK293T cells by luciferase reporter gene assay; type: cell-based; conditions: Homo sapiens
[21] = Plasma concentration in mouse at 15 mg/kg, ip at 20 mins
[22] = Cytotoxicity against human NCI60 cells; type: cell-based
[23] = target: Nucleotide-binding oligomerization domain-containing protein 2 (Homo sapiens, UniProt Q9HC29); experiment: Inhibition of NOD-2 in human MCF7 cells assessed as inhibition of MDP-induced IL8 secretion at 0.25 to 5 uM by ELISA; type: cell-based
MCF7 = experiment: Inhibition of TNFalpha-induced IL8 secretion in human MCF7 cells at 0.25 to 5 uM by ELISA; type: functional, cell-based
HEK-293T [24] = experiment: Inhibition of PMA/ionomycin-induced NFkappaB activation at 0.25 to 25 uM in HEK293T cells by luciferase reporter gene assay; type: cell-based; conditions: Homo sapiens
[25] = target: Receptor-type tyrosine-protein kinase FLT3 (Homo sapiens) (UniProt P36888); experiment: Inhibition of CFLT3 at 10 uM relative to control
[26] = target: T3, Aurora kinase A (Homo sapiens) (UniProt O14965); experiment: Inhibition of AURKA at 10 uM relative to control
T3 sequence (whole entry): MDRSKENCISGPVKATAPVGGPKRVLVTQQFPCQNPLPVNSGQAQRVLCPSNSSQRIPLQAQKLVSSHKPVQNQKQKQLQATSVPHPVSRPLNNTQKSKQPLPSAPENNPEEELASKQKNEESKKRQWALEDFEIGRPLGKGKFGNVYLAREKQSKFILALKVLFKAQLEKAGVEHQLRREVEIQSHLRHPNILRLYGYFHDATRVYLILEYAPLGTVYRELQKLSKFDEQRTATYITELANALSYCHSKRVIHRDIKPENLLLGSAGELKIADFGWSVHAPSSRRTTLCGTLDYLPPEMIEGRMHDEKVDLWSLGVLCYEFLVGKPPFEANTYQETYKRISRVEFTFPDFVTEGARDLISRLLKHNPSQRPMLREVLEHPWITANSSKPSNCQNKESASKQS

[27] = Plasma concentration in mouse at 15 mg/kg, ip at 120 mins

5-hydroxytryptamine receptor 6 (Homo sapiens), sequence (P50406 whole entry): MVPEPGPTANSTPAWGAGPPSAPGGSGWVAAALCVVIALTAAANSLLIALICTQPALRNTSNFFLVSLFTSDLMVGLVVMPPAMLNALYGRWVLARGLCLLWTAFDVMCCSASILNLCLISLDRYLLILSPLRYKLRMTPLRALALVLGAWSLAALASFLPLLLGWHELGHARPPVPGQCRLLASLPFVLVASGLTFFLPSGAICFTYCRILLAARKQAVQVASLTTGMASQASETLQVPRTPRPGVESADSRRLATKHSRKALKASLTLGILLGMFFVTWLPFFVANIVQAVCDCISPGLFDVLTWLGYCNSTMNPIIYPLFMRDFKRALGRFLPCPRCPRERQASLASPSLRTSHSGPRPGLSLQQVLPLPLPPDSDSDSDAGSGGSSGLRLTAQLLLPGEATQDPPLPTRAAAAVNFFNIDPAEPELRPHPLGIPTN
5-hydroxytryptamine receptor 2B (Homo sapiens), sequence (P41595 whole entry): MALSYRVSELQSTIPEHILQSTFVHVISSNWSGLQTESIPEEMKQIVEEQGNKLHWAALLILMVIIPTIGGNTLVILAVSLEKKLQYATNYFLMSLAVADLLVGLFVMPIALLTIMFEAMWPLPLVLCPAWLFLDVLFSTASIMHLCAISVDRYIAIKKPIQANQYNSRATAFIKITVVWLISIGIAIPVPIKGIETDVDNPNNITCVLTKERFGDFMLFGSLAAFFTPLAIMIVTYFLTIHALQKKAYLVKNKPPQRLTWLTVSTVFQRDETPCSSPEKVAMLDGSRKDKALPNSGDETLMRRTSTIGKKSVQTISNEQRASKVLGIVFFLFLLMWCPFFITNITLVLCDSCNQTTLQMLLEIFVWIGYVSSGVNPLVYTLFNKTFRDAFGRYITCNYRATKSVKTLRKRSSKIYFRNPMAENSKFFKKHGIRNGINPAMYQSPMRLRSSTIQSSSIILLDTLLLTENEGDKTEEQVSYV
Receptor-type tyrosine-protein kinase FLT3 (Homo sapiens), sequence (P36888 whole entry): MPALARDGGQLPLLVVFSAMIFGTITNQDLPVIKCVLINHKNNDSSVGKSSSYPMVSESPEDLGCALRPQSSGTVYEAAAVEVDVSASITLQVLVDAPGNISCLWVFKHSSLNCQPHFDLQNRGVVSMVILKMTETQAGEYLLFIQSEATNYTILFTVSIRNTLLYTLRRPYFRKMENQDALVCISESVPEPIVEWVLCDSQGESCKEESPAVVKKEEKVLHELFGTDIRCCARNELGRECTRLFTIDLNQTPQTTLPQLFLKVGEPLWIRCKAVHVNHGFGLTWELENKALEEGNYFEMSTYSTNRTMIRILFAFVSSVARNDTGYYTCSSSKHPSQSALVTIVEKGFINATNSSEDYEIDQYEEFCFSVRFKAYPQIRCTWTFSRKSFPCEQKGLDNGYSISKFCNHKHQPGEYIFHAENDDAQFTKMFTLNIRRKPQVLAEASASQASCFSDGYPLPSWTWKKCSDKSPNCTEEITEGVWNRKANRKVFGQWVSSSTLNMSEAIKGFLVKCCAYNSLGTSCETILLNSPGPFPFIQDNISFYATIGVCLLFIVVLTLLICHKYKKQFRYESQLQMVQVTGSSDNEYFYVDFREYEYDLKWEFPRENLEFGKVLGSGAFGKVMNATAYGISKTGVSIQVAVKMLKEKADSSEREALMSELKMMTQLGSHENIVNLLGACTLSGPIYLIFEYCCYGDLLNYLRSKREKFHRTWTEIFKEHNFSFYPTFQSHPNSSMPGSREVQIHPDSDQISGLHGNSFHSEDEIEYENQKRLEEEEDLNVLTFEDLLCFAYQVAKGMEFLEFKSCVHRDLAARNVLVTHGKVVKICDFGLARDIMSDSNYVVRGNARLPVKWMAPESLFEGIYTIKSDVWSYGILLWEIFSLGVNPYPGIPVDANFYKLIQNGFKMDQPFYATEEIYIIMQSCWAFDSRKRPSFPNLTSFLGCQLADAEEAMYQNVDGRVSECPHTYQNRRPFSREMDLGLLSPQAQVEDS
Serine/threonine-protein kinase RIO2 (Homo sapiens), sequence (Q9BVS4 whole entry, looked up): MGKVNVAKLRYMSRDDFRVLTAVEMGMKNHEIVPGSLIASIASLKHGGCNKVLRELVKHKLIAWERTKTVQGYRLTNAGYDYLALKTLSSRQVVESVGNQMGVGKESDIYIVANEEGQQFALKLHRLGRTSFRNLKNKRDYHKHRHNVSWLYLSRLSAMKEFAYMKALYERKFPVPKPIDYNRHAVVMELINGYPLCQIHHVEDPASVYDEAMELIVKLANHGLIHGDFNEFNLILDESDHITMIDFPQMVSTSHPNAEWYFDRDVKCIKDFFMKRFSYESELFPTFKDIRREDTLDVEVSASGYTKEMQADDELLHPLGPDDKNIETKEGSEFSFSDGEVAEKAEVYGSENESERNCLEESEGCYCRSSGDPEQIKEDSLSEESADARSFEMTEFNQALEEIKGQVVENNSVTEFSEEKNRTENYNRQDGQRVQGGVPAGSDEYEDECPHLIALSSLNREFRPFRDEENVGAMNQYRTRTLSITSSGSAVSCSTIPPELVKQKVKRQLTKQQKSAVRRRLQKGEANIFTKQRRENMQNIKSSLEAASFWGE
Nucleotide-binding oligomerization domain-containing protein 2, sequence (Q9HC29 whole entry, the tested form may be a part): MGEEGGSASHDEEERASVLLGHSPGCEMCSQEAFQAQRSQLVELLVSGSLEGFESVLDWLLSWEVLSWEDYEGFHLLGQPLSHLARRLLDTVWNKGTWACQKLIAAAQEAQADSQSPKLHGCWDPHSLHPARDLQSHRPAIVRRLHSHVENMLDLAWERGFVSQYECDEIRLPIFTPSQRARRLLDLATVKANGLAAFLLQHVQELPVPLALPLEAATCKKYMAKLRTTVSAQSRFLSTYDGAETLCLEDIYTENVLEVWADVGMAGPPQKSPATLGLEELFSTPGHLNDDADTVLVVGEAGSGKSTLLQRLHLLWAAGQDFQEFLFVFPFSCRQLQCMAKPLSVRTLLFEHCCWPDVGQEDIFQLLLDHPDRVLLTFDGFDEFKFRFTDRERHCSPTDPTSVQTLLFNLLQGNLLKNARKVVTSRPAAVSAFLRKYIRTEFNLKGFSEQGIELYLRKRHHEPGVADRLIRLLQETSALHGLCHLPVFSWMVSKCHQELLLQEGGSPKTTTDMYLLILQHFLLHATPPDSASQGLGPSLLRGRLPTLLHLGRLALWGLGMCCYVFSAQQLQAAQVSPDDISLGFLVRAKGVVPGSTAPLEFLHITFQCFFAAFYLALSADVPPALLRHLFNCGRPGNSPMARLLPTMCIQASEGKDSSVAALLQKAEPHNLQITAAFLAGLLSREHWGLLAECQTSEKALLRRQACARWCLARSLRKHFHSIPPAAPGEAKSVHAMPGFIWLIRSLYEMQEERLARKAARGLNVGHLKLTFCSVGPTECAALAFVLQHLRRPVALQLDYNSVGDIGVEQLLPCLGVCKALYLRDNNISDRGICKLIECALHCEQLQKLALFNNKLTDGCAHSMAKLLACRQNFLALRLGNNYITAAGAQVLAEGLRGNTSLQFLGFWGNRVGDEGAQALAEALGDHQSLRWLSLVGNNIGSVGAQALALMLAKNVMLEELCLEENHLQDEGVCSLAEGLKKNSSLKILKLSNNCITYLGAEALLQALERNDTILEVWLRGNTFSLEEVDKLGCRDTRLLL
Histamine H1 receptor (Homo sapiens), sequence (P35367 whole entry): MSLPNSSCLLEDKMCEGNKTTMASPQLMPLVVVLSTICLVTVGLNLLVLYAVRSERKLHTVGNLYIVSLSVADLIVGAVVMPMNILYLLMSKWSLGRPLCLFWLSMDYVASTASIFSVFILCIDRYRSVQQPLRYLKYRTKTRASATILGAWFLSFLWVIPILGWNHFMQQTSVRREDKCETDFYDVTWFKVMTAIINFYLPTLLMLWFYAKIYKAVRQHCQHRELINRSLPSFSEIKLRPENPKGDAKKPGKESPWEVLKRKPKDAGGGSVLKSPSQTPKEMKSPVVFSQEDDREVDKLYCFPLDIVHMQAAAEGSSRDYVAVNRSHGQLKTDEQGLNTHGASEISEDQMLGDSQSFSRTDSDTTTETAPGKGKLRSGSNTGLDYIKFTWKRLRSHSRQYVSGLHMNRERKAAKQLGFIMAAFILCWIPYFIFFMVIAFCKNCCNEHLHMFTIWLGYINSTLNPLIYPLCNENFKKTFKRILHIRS
Aurora kinase B (Homo sapiens), sequence (Q96GD4 whole entry): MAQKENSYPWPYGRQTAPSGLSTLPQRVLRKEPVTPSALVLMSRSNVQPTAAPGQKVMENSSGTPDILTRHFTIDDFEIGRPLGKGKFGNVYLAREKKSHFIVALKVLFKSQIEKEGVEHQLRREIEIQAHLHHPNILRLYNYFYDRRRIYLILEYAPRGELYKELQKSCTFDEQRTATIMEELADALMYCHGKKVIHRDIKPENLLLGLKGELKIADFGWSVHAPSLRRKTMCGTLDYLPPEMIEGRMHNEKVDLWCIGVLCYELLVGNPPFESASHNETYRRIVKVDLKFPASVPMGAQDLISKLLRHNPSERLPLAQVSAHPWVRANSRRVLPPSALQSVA

Cc1ccc(S(=O)(=O)n2c(N)nc3ccccc32)cc1
concentration at 20 min [1]: 5500 ng/mL | inhibition [2]: Active | remaining at 3 h, 1 µM [3]: 100% | inhibition [4]: 21% | fraction unbound at 4 h, 1 µM [5]: 0.025 | IC50 (cells): > 20 µM | inhibition [6]: 69% | fraction unbound at 4 h, 10 µM [7]: 0.045 | fraction unbound at 4 h, 10 µM [8]: 0.023 | inhibition [9]: 92% | inhibition [10]: 6% | remaining at 1 h, 1 µM [11]: 0.8% | Activity (HEK-293T [12]): 0% | fraction unbound at 4 h, 1 µM [13]: 0.05 | remaining at 3 h, 1 µM [14]: 100% | inhibition [15]: 23% | remaining at 1 h, 1 µM [16]: 41.8% | concentration at 2 h [17]: < 500 ng/mL | CC50 at 24 h [18]: > 50 µM | inhibition [19]: 89% | inhibition (HEK-293T [20]): inactive | concentration at 20 min [21]: 1200 ng/mL | Activity [22]: Non-toxic | inhibition [23]: inactive | inhibition (MCF7): inactive | inhibition (HEK-293T [24]): inactive | inhibition [25]: 27% | inhibition [26]: inactive | concentration at 2 h [27]: < 500 ng/mL
